{"source": "ChEMBL document CHEMBL4507285", "about": "“Data for DCP probe MRL-SYKi” (2021)", "settings_in_all_cases": "Compound concentration 100.0 nM", "key": {"[1]": {"target": "AP2-associated protein kinase 1 (Homo sapiens) (UniProt Q2M2I8)"}, "[2]": {"test_system": "Tyrosine-protein kinase ABL1 (Homo sapiens), P00519 [T315I]"}, "[3]": {"target": "Activin receptor type-1B (Homo sapiens) (UniProt P36896)"}, "[4]": {"target": "RAC-gamma serine/threonine-protein kinase (Homo sapiens) (UniProt Q9Y243)", "sequence (Q9Y243 whole entry)": "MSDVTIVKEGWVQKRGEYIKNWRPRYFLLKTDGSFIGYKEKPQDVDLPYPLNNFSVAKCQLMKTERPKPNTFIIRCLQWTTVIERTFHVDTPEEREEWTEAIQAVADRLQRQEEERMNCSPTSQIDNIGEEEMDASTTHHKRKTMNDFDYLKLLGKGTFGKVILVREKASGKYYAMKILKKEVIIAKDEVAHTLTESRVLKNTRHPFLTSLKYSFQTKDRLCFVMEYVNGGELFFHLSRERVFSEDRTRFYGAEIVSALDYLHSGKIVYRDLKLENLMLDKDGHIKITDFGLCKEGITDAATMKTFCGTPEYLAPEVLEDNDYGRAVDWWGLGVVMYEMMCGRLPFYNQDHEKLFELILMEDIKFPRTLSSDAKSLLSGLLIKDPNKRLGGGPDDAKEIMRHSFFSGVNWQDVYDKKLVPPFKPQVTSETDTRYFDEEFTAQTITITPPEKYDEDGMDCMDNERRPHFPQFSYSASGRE"}, "[5]": {"target": "Aurora kinase C (Homo sapiens) (UniProt Q9UQB9)"}, "[6]": {"target": "Protein-tyrosine kinase 6 (Homo sapiens) (UniProt Q13882)"}, "[7]": {"target": "Citron Rho-interacting kinase (Homo sapiens) (UniProt O14578)", "sequence (O14578 whole entry)": "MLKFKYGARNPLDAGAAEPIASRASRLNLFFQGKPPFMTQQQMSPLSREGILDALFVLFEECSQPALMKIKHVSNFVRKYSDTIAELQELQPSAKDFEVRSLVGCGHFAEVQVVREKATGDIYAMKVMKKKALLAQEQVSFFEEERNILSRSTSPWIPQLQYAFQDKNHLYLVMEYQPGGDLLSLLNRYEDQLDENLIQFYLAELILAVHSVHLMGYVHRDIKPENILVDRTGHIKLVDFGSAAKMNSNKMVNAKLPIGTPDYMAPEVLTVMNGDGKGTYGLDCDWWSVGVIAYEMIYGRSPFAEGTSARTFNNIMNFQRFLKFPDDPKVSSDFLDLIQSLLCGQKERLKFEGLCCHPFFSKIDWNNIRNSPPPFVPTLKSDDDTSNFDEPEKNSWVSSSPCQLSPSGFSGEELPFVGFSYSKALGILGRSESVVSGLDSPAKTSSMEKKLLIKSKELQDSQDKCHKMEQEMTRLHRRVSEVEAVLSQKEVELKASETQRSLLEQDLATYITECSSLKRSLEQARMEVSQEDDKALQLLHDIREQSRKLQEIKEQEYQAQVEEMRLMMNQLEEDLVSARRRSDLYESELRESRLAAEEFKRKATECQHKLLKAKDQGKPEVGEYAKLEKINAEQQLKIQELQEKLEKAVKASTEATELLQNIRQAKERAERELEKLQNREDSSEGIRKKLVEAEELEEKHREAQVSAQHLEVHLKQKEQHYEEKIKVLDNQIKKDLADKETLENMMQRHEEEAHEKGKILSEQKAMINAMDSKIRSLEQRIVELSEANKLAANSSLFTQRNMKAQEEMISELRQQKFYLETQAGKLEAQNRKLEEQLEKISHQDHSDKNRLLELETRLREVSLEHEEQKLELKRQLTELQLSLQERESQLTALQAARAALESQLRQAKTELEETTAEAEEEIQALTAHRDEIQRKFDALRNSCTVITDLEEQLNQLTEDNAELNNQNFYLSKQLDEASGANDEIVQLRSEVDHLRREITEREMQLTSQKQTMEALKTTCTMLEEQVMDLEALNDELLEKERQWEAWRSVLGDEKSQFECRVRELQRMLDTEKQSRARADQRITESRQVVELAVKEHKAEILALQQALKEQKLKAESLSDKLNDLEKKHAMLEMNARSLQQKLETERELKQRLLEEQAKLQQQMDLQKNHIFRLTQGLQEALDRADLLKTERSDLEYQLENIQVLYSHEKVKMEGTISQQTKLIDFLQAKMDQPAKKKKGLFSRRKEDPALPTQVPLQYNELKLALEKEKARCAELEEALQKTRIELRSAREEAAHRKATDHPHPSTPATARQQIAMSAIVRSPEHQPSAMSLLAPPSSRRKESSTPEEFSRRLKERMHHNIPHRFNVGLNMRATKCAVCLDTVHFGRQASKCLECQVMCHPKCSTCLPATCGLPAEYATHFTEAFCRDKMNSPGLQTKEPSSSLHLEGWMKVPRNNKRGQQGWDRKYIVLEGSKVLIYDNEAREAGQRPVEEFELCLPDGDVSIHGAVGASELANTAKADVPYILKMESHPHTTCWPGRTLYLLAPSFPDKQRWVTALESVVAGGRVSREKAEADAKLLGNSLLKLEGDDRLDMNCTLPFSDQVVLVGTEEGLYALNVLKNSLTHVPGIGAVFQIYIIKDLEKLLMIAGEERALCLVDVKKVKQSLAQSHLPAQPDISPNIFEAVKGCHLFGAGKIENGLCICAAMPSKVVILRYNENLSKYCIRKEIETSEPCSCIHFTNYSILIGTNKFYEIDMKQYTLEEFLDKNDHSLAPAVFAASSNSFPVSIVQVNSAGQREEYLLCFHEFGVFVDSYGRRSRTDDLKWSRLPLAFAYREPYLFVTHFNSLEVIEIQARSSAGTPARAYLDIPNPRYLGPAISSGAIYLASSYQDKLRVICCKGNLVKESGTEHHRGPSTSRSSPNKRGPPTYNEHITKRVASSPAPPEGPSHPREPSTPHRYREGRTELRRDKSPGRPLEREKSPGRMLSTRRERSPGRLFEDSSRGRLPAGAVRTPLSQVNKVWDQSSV"}, "[8]": {"target": "Dual specificity protein kinase CLK1 (Homo sapiens) (UniProt P49759)"}, "[9]": {"target": "Macrophage colony-stimulating factor 1 receptor (Homo sapiens) (UniProt P07333)"}, "[10]": {"target": "Tyrosine-protein kinase CSK (Homo sapiens) (UniProt P41240)", "sequence (P41240 2-450 limits assumed)": "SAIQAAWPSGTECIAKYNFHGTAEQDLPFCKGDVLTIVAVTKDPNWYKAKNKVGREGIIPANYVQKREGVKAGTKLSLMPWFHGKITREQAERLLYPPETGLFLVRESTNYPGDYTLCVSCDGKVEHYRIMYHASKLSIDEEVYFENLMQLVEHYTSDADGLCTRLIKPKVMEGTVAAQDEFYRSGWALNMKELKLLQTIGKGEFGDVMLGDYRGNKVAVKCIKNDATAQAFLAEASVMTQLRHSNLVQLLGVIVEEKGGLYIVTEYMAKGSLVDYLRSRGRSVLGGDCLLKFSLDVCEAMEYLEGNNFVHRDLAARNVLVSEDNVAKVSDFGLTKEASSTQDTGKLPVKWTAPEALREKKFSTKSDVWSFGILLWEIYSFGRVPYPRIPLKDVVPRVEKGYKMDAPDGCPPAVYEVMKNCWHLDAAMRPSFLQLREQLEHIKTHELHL"}, "[11]": {"target": "Casein kinase I isoform alpha-like (Homo sapiens) (UniProt Q8N752)"}, "[12]": {"target": "Casein kinase I isoform gamma-1 (Homo sapiens) (UniProt Q9HCP0)"}, "[13]": {"target": "Epithelial discoidin domain-containing receptor 1 (Homo sapiens) (UniProt Q08345)"}, "[14]": {"target": "Ephrin type-B receptor 1 (Homo sapiens) (UniProt P54762)"}, "[15]": {"target": "Receptor-type tyrosine-protein kinase FLT3 (Homo sapiens) (UniProt P36888)"}, "[16]": {"test_system": "Receptor-type tyrosine-protein kinase FLT3 (Homo sapiens), P36888 [UNDEFINED MUTATION]"}, "[17]": {"test_system": "eIF-2-alpha kinase GCN2 (Homo sapiens), Q9P2K8 [S808G]"}, "[18]": {"target": "Rhodopsin kinase GRK1 (Homo sapiens) (UniProt Q15835)", "sequence (Q15835 whole entry)": "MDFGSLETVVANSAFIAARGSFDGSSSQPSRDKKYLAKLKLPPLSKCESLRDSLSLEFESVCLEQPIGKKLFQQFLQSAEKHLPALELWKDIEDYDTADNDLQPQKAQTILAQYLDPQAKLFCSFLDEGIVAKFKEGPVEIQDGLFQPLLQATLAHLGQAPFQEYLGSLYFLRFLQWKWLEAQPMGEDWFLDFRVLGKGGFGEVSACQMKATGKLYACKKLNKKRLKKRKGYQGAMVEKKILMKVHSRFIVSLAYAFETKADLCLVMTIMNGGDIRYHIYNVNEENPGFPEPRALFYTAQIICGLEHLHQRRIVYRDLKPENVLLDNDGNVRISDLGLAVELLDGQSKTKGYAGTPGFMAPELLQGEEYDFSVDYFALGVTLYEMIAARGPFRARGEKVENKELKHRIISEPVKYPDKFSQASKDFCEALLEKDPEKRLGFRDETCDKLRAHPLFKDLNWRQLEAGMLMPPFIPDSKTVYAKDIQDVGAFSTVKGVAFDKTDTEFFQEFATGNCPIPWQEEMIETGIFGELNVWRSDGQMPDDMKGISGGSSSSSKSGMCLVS"}, "[19]": {"target": "Serine/threonine-protein kinase haspin (Homo sapiens) (UniProt Q8TF76)", "sequence (Q8TF76 whole entry)": "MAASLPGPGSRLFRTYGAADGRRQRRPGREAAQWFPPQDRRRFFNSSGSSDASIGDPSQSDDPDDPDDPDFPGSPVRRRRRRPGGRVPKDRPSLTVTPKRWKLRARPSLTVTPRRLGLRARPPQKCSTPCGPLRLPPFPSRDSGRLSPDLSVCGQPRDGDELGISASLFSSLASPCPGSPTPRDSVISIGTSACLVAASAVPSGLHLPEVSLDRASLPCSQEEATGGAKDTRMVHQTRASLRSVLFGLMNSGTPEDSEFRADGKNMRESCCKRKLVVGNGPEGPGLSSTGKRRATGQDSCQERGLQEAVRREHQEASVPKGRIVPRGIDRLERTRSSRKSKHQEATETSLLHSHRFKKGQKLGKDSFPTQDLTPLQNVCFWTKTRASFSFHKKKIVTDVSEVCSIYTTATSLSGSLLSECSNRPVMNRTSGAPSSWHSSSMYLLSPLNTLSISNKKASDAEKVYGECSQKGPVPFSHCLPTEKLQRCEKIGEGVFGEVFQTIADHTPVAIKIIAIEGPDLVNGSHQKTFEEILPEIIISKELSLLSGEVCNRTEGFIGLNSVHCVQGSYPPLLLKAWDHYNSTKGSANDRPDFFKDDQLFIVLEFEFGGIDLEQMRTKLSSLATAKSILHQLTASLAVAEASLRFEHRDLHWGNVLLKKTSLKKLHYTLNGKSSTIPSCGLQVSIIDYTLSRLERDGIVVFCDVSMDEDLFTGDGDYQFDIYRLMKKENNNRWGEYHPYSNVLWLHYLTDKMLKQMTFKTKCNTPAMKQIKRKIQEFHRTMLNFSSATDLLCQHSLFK"}, "[20]": {"target": "Homeodomain-interacting protein kinase 1 (Homo sapiens) (UniProt Q86Z02)"}, "[21]": {"target": "Homeodomain-interacting protein kinase 4 (Homo sapiens) (UniProt Q8NE63)"}, "[22]": {"target": "Serine/threonine-protein kinase ICK (Homo sapiens) (UniProt Q9UPZ9)"}, "[23]": {"target": "Inhibitor of nuclear factor kappa-B kinase subunit epsilon (Homo sapiens) (UniProt Q14164)"}, "[24]": {"target": "Mitogen-activated protein kinase 10 (Homo sapiens) (UniProt P53779)", "sequence (P53779 whole entry)": "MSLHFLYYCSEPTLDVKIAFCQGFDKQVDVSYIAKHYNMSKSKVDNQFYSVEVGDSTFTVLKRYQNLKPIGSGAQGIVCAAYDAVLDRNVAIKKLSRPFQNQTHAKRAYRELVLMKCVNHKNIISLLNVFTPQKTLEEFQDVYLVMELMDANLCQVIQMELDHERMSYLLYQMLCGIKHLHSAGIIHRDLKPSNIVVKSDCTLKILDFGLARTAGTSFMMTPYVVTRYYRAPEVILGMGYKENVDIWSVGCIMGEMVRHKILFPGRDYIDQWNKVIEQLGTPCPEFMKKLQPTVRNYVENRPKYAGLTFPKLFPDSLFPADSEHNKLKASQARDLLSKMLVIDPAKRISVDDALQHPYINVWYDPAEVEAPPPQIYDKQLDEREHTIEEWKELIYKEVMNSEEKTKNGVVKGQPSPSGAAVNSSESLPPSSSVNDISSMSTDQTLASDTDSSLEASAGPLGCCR"}, "[25]": {"target": "Tyrosine-protein kinase Lck (Homo sapiens) (UniProt P06239)"}, "[26]": {"target": "Mitogen-activated protein kinase kinase kinase 2 (Homo sapiens) (UniProt Q9Y2U5)"}, "[27]": {"target": "Mitogen-activated protein kinase kinase kinase 4 (Homo sapiens) (UniProt Q9Y6R4)"}, "[28]": {"target": "Mitogen-activated protein kinase kinase kinase kinase 2 (Homo sapiens) (UniProt Q12851)"}, "[29]": {"target": "Misshapen-like kinase 1 (Homo sapiens) (UniProt Q8N4C8)"}, "[30]": {"target": "Serine/threonine-protein kinase 26 (Homo sapiens) (UniProt Q9P289)"}, "[31]": {"target": "Serine/threonine-protein kinase mTOR (Homo sapiens) (UniProt P42345)"}, "[32]": {"target": "Myosin light chain kinase family member 4 (Homo sapiens) (UniProt Q86YV6)"}, "[33]": {"target": "Cyclin-dependent kinase 18 (Homo sapiens) (UniProt Q07002)"}, "[34]": {"target": "Phosphatidylinositol 4,5-bisphosphate 3-kinase catalytic subunit alpha isoform (Homo sapiens) (UniProt P42336)"}, "[35]": {"test_system": "Phosphatidylinositol 4,5-bisphosphate 3-kinase catalytic subunit alpha isoform (Homo sapiens), P42336 [I800L]"}, "[36]": {"target": "Protein kinase C theta type (Homo sapiens) (UniProt Q04759)"}, "[37]": {"target": "Serine/threonine-protein kinase D2 (Homo sapiens) (UniProt Q9BZL6)"}, "[38]": {"target": "Ribosomal protein S6 kinase alpha-2 (Homo sapiens) (UniProt Q15349)"}, "[39]": {"target": "Ribosomal protein S6 kinase beta-1 (Homo sapiens) (UniProt P23443)"}, "[40]": {"target": "Serine/threonine-protein kinase SIK1 (Homo sapiens) (UniProt P57059)"}, "[41]": {"target": "STE20/SPS1-related proline-alanine-rich protein kinase (Homo sapiens) (UniProt Q9UEW8)"}, "[42]": {"target": "Non-receptor tyrosine-protein kinase TNK1 (Homo sapiens) (UniProt Q13470)"}, "[43]": {"target": "Tyrosine-protein kinase TXK (Homo sapiens) (UniProt P42681)"}, "[44]": {"target": "Serine/threonine-protein kinase ULK2 (Homo sapiens) (UniProt Q8IYT8)"}, "[45]": {"target": "Wee1-like protein kinase (Homo sapiens) (UniProt P30291)"}}}
{"smiles": "Cc1ccc(-c2cnc([C@@]3(O)CC[C@H](C(=O)O)C(C)(C)C3)s2)cc1Nc1cccc(C(F)(F)F)n1", "note": "[MRL-SYKi-NC]", "values": [{"measurement": "residual activity", "setting": "[1]", "value": 85.7, "unit": "%"}, {"measurement": "residual activity", "setting": "[2]", "value": 88, "unit": "%"}, {"measurement": "residual activity", "setting": "[3]", "value": 100, "unit": "%"}, {"measurement": "residual activity", "setting": "[4]", "value": 82.8, "unit": "%"}, {"measurement": "residual activity", "setting": "[5]", "value": 100, "unit": "%"}, {"measurement": "residual activity", "setting": "[6]", "value": 100, "unit": "%"}, {"measurement": "residual activity", "setting": "[7]", "value": 90.9, "unit": "%"}, {"measurement": "residual activity", "setting": "[8]", "value": 83.8, "unit": "%"}, {"measurement": "residual activity", "setting": "[9]", "value": 84, "unit": "%"}, {"measurement": "residual activity", "setting": "[10]", "value": 82.3, "unit": "%"}, {"measurement": "residual activity", "setting": "[11]", "value": 91.9, "unit": "%"}, {"measurement": "residual activity", "setting": "[12]", "value": 91.8, "unit": "%"}, {"measurement": "residual activity", "setting": "[13]", "value": 100, "unit": "%"}, {"measurement": "residual activity", "setting": "[14]", "value": 98.7, "unit": "%"}, {"measurement": "residual activity", "setting": "[15]", "value": 100, "unit": "%"}, {"measurement": "residual activity", "setting": "[16]", "value": 100, "unit": "%"}, {"measurement": "residual activity", "setting": "[17]", "value": 100, "unit": "%"}, {"measurement": "residual activity", "setting": "[18]", "value": 82.1, "unit": "%"}, {"measurement": "residual activity", "setting": "[19]", "value": 47, "unit": "%"}, {"measurement": "residual activity", "setting": "[20]", "value": 84.8, "unit": "%"}, {"measurement": "residual activity", "setting": "[21]", "value": 97.7, "unit": "%"}, {"measurement": "residual activity", "setting": "[22]", "value": 91.7, "unit": "%"}, {"measurement": "residual activity", "setting": "[23]", "value": 73.8, "unit": "%"}, {"measurement": "residual activity", "setting": "[24]", "value": 37.5, "unit": "%"}, {"measurement": "residual activity", "setting": "[25]", "value": 100, "unit": "%"}, {"measurement": "residual activity", "setting": "[26]", "value": 100, "unit": "%"}, {"measurement": "residual activity", "setting": "[27]", "value": 100, "unit": "%"}, {"measurement": "residual activity", "setting": "[28]", "value": 100, "unit": "%"}, {"measurement": "residual activity", "setting": "[29]", "value": 100, "unit": "%"}, {"measurement": "residual activity", "setting": "[30]", "value": 100, "unit": "%"}, {"measurement": "residual activity", "setting": "[31]", "value": 84.6, "unit": "%"}, {"measurement": "residual activity", "setting": "[32]", "value": 100, "unit": "%"}, {"measurement": "residual activity", "setting": "[33]", "value": 100, "unit": "%"}, {"measurement": "residual activity", "setting": "[34]", "value": 86.9, "unit": "%"}, {"measurement": "residual activity", "setting": "[35]", "value": 76.7, "unit": "%"}, {"measurement": "residual activity", "setting": "[36]", "value": 100, "unit": "%"}, {"measurement": "residual activity", "setting": "[37]", "value": 100, "unit": "%"}, {"measurement": "residual activity", "setting": "[38]", "value": 100, "unit": "%"}, {"measurement": "residual activity", "setting": "[39]", "value": 85.9, "unit": "%"}, {"measurement": "residual activity", "setting": "[40]", "value": 100, "unit": "%"}, {"measurement": "residual activity", "setting": "[41]", "value": 100, "unit": "%"}, {"measurement": "residual activity", "setting": "[42]", "value": 100, "unit": "%"}, {"measurement": "residual activity", "setting": "[43]", "value": 88.4, "unit": "%"}, {"measurement": "residual activity", "setting": "[44]", "value": 76, "unit": "%"}, {"measurement": "residual activity", "setting": "[45]", "value": 81.4, "unit": "%"}]}
{"smiles": "Cc1cc(Nc2nccc(C)n2)cc(-c2cnc([C@@]3(O)CC[C@H](C(=O)O)C(C)(C)C3)s2)c1", "note": "[MRL-SYKi]", "values": [{"measurement": "residual activity", "setting": "[1]", "value": 100, "unit": "%"}, {"measurement": "residual activity", "setting": "[2]", "value": 100, "unit": "%"}, {"measurement": "residual activity", "setting": "[3]", "value": 92.7, "unit": "%"}, {"measurement": "residual activity", "setting": "[4]", "value": 100, "unit": "%"}, {"measurement": "residual activity", "setting": "[5]", "value": 100, "unit": "%"}, {"measurement": "residual activity", "setting": "[6]", "value": 100, "unit": "%"}, {"measurement": "residual activity", "setting": "[7]", "value": 100, "unit": "%"}, {"measurement": "residual activity", "setting": "[8]", "value": 97.9, "unit": "%"}, {"measurement": "residual activity", "setting": "[9]", "value": 85.6, "unit": "%"}, {"measurement": "residual activity", "setting": "[10]", "value": 100, "unit": "%"}, {"measurement": "residual activity", "setting": "[11]", "value": 100, "unit": "%"}, {"measurement": "residual activity", "setting": "[12]", "value": 100, "unit": "%"}, {"measurement": "residual activity", "setting": "[13]", "value": 84.5, "unit": "%"}, {"measurement": "residual activity", "setting": "[14]", "value": 100, "unit": "%"}, {"measurement": "residual activity", "setting": "[15]", "value": 94.2, "unit": "%"}, {"measurement": "residual activity", "setting": "[16]", "value": 84.8, "unit": "%"}, {"measurement": "residual activity", "setting": "[17]", "value": 56.2, "unit": "%"}, {"measurement": "residual activity", "setting": "[18]", "value": 71.7, "unit": "%"}, {"measurement": "residual activity", "setting": "[19]", "value": 90.8, "unit": "%"}, {"measurement": "residual activity", "setting": "[20]", "value": 52.3, "unit": "%"}, {"measurement": "residual activity", "setting": "[21]", "value": 75.6, "unit": "%"}, {"measurement": "residual activity", "setting": "[22]", "value": 65.4, "unit": "%"}, {"measurement": "residual activity", "setting": "[23]", "value": 100, "unit": "%"}, {"measurement": "residual activity", "setting": "[24]", "value": 67.7, "unit": "%"}, {"measurement": "residual activity", "setting": "[25]", "value": 73, "unit": "%"}, {"measurement": "residual activity", "setting": "[26]", "value": 100, "unit": "%"}, {"measurement": "residual activity", "setting": "[27]", "value": 67.4, "unit": "%"}, {"measurement": "residual activity", "setting": "[28]", "value": 100, "unit": "%"}, {"measurement": "residual activity", "setting": "[29]", "value": 80.7, "unit": "%"}, {"measurement": "residual activity", "setting": "[30]", "value": 100, "unit": "%"}, {"measurement": "residual activity", "setting": "[31]", "value": 77.7, "unit": "%"}, {"measurement": "residual activity", "setting": "[32]", "value": 100, "unit": "%"}, {"measurement": "residual activity", "setting": "[33]", "value": 100, "unit": "%"}, {"measurement": "residual activity", "setting": "[34]", "value": 100, "unit": "%"}, {"measurement": "residual activity", "setting": "[35]", "value": 95.1, "unit": "%"}, {"measurement": "residual activity", "setting": "[36]", "value": 39.9, "unit": "%"}, {"measurement": "residual activity", "setting": "[37]", "value": 96.1, "unit": "%"}, {"measurement": "residual activity", "setting": "[38]", "value": 86, "unit": "%"}, {"measurement": "residual activity", "setting": "[39]", "value": 78.2, "unit": "%"}, {"measurement": "residual activity", "setting": "[40]", "value": 94.3, "unit": "%"}, {"measurement": "residual activity", "setting": "[41]", "value": 81.8, "unit": "%"}, {"measurement": "residual activity", "setting": "[42]", "value": 100, "unit": "%"}, {"measurement": "residual activity", "setting": "[43]", "value": 64, "unit": "%"}, {"measurement": "residual activity", "setting": "[44]", "value": 100, "unit": "%"}, {"measurement": "residual activity", "setting": "[45]", "value": 93.1, "unit": "%"}]}
